Our source for the IC50 values is patent US20030232013A1, “Therapeutic and diagnostic targeting of cancers cells with tumor homing peptides” (priority 2002, published 2003).

Where two headings read alike, the source gives them in different places. Bridge positions count the residues as written; N and C are the ends. Square brackets hold non-standard residues; d marks the D form. Peptide text beside a SMILES is read from it. Ahx = NCCCCCC(=O)O

The subject of experiment [1] is T47D (Human) breast cancer cells. Briefly: In vitro competitive cell binding assay, T47D. The protocol:
(§1) In Vitro Competitive Cell Binding Assay. The IC50 values of both metallated and non-metallated STh conjugates were determined in human cancer cells by a competitive displacement cell binding assay using ^125I-STh (^125I-Tyr^5-Phe^19-STh or ^125I-Tyr^5-6-Ahx-Phe^19-STh). […] After the incubation, the reaction medium was aspirated and cells were washed three times with media. The radioactivity bound to the cells was counted in a Packard Riastar gamma counting system. The ^125I-STh bound to cells was plotted vs. increasing concentrations of STh conjugate to determine the respective IC50 values (Table 3). For statistical considerations, three separate in vitro cell binding experiments with each conjugate were performed in duplicate.

The test system of experiment [2] is MB-231 (Human) breast cancer cells. The experiment is described as follows: In vitro competitive cell binding assay, MB-231. On the procedure:
as §1

The subject of experiment [3] is MB-468 (Human) breast cancer cells. The experiment is described as follows: In vitro competitive cell binding assay, MB-468. The note with it: competitive binding vs. ^125I-Tyr^5-6-Ahx-Phe^19-STh or ^125I-Tyr^5-Phe^19-STh. On the procedure: as §1
Experiment [4] concerns H69 (Human) lung cancer cells. Briefly: In vitro competitive cell binding assay, H69. The following applies: competitive binding vs. ^125I-Tyr^5-6-Ahx-Phe^19-STh or ^125I-Tyr^5-Phe^19-STh. On the procedure: as §1
The subject of experiment [5] is OVCAR-3 (Human) ovarian cancer cells. Briefly: In vitro competitive cell binding assay, OVCAR-3. The following applies: competitive binding vs. ^125I-Tyr^5-6-Ahx-Phe^19-STh or ^125I-Tyr^5-Phe^19-STh. The protocol:
as §1

Experiment [6] deals with MCF-7 (Human) breast cancer cells. Briefly: In vitro competitive cell binding assay, MCF-7. The note with it: competitive binding vs. ^125I-Tyr^5-6-Ahx-Phe^19-STh or ^125I-Tyr^5-Phe^19-STh. On the procedure:
as §1

For experiment [7], the system named is CFPAC-1 (Human) pancreatic cancer cells. The experiment is described as follows: In vitro competitive cell binding assay, CFPAC-1. The note with it: competitive binding vs. ^125I-Tyr^5-6-Ahx-Phe^19-STh or ^125I-Tyr^5-Phe^19-STh. On the procedure: as §1
Experiment [8] concerns CAPAN-1 (Human) pancreatic cancer cells. The experiment is described as follows: In vitro competitive cell binding assay, CAPAN-1. The following applies: competitive binding vs. ^125I-Tyr^5-6-Ahx-Phe^19-STh or ^125I-Tyr^5-Phe^19-STh. The protocol:
as §1

For experiment [9], the system named is PC-3 (Human) prostate cancer cells. The experiment is described as follows: In vitro competitive cell binding assay, PC-3. The note with it: competitive binding vs. ^125I-Tyr^5-6-Ahx-Phe^19-STh or ^125I-Tyr^5-Phe^19-STh. On the procedure:
as §1

The test system of experiment [10] is A375 (Human) melanoma cells. Briefly: In vitro competitive cell binding assay, A375. The note with it: competitive binding vs. ^125I-Tyr^5-6-Ahx-Phe^19-STh or ^125I-Tyr^5-Phe^19-STh. On the procedure:
as §1

For the molecule `CC(C)C[C@@H]1NC(=O)[C@H](CCC(=O)O)NC(=O)[C@@H]2CSSC[C@@H]3NC(=O)[C@H](C)NC(=O)[C@@H]4CCCN4C(=O)[C@H](CC(N)=O)NC(=O)[C@H](CSSC[C@H](NC(=O)[C@H](Cc4ccc(O)cc4)NC(=O)[C@H](CC(N)=O)NC(=O)[C@H](CO)NC(=O)[C@H](CO)NC(=O)[C@@H](N)CC(N)=O)C(=O)N2)NC(=O)[C@H](CSSC[C@@H](C(=O)N[C@@H](Cc2ccccc2)C(=O)O)NC(=O)CNC(=O)[C@H]([C@@H](C)O)NC3=O)NC1=O` [Phe^19-STh] (H-NSSNYCCELCCNPACTGCF-OH; disulfide 6-11, 7-15, 10-18), the IC50 was found to be 3 ± 1.7 nM in experiment [1] (competitive binding vs ^125-Tyr-6-Ahx-Phe^19-STh, read-out: IC50, T-47D (FIG. 5)); 5.2 ± 1.3 nM in experiment [2] (competitive binding vs ^125-Tyr-6-Ahx-Phe^19-STh, read-out: IC50, MB-231 (FIG. 5)); 2.8 nM in experiment [3]; 4.5 ± 1.7 nM in experiment [4]; 3.2 nM in [5].

Regarding `CC(C)C[C@@H]1NC(=O)[C@H](CCC(=O)O)NC(=O)[C@@H]2CSSC[C@@H]3NC(=O)[C@H](C)NC(=O)[C@@H]4CCCN4C(=O)[C@H](CC(N)=O)NC(=O)[C@H](CSSC[C@H](NC(=O)[C@H](Cc4ccc(O)cc4)NC(=O)[C@H](CC(N)=O)NC(=O)[C@H](CO)NC(=O)[C@H](CO)NC(=O)[C@H](CC(N)=O)NC(=O)CCCCCN)C(=O)N2)NC(=O)[C@H](CSSC[C@@H](C(=O)N[C@@H](Cc2ccccc2)C(=O)O)NC(=O)CNC(=O)[C@H]([C@@H](C)O)NC3=O)NC1=O` [6-Ahx-Phe^19-STh] (H-[Ahx]NSSNYCCELCCNPACTGCF-OH; disulfide 7-12, 8-16, 11-19 (inferred); N-terminus assumed), the IC50 came out at 5.6 ± 0.9 nM in [1] (competitive binding vs. ^125I-Tyr^5-6-Ahx-Phe^19-STh or ^125I-Tyr^5-Phe^19-STh, read-out: In vitro IC50, Breast T47D (Human)); 5.2 ± 1.5 nM in experiment [2] (competitive binding vs. ^125I-Tyr^5-6-Ahx-Phe^19-STh or ^125I-Tyr^5-Phe^19-STh, read-out: In vitro IC50, Breast MB-231 (Human)); 4.6 ± 2.8 nM in experiment [6]; 4.4 ± 1.5 nM in experiment [7]; 4.5 nM in experiment [8]; 3.1 nM in [9]. In addition, the IC50 in experiment [10] came out at 6.4 ± 2.9 nM.
